Experimental findings from patent US10238631B2, “Sesquiterpene derivatives and their use in inflammation or cancer treatment” (Academia Sinica, priority 2014, dated 2019) are described below.

Test [1] has as its system TS/A (ER+, Her2−) murine mammary cancer cells. As to the kind of experiment: MTT cell viability assay, TS/A cells. The format is cell-based. The conditions noted are these: Mus musculus, 24 h, read-out: IC50 on cell viability, TS/A (ER+, Her2−). The procedure: (§1) Normal or cancer cells (2×10^3 to 1×10^4 cells/well) were seeded in 96-well plate for overnight and treated with different compounds for 24 h to 72 h. Cells growth were determined by MTT-based colorimetric assays according to. Viability of the test cells treated with vehicle (0.5% DMSO) only was defined as 100% viable. Survival of cells after treatment with DETDs was calculated using the following formula: viable cell number (%)=OD570 (treated cell culture)/OD570 (vehicle control)×100.
(§2) Sixty DETDs were derived from parental compound […] and tested for anti-breast cancer cell activity.

For test [2], the system named is MDA-MB-231 (ER−, PR−, Her2−) human breast cancer cells. Description: MTT cell viability assay, MDA-MB-231 cells. The class given is cell-based. The settings on record: Homo sapiens, MDA-MB-231, 24 h, read-out: IC50 on cell viability, MDA-MB-231 (ER−, PR−, Her2−). The procedure:
as §1, §2
A general note: Tetrazolium assays rely on reduction of a dye to a coloured formazan, in cell work by metabolically active cells.

The subject of test [3] is MCF-7 (ER+, Her2−) human breast cancer cells. Description: MTT cell viability assay, MCF-7 cells. The conditions noted are these: MCF7, 24 h, read-out: IC50 on cell viability, MCF-7 (ER+, Her2−). The class given is cell-based. The method, then:
as §1, §2

In test [4] the test system is M10 normal mammary epithelial cells. Description: MTT cell viability assay, M10 normal cells. The class given is cell-based, human. The conditions noted are these: 24 h; for IC50: Homo sapiens, Epithelial cell. The method, then: as §1, §2
Test [5] deals with B16-F10 (NRAS mutation). Description: MTT cell viability assay, B16-F10 melanoma. The settings on record: Mus musculus, B16-F10, 24 h, read-out: IC50 on cell viability, B16-F10 (NRAS mutation). The format is cell-based. The method, then: as §1
(§3) Several genes are involved in melanoma development and pathology; specifically, mutation in V-raf murine sarcoma viral oncogene homolog B1 (B-RAF) occurs approximately 50-60% and in neuroblastoma RAS viral oncogene homolog (N-RAS) occurs about 30% of malignant melanomas. A spectrum of wild-type or mutated melanoma cell lines including B16-F10, MeWo, A375, A2058, HTB-68, and melanocyte were used to study anti-melanoma cell proliferation activity of parental phytocompound DET and newly synthesized DETDs.

The subject of test [6] is MeWo (No NRAS or BRAF mutation). As to the kind of experiment: MTT cell viability assay, MeWo melanoma. The format is cell-based, human. The settings on record: Homo sapiens, MeWo, 24 h. The procedure:
as §1, §3

Test [7] has as its system HTB-68 (NRAS mutation). Description: MTT cell viability assay, HTB-68 melanoma. The class given is cell-based, human. The settings on record: Homo sapiens, 24 h. The procedure: as §1, §3
In test [8] the test system is A2058 (BRAF mutation). Description: MTT cell viability assay, A2058 melanoma. The class given is cell-based, human. The conditions noted are these: Homo sapiens, A2058, 24 h. The method, then:
as §1, §3

In test [9] the test system is A375 (BRAF mutation). Description: MTT cell viability assay, A375 melanoma. The settings on record: Homo sapiens, A-375, 24 h, read-out: IC50 on cell viability, A375 (BRAF mutation). The class given is cell-based, human. The procedure: as §1, §3
To investigate whether or not DETD-35 show synergism with PLX4032 against A375 melanoma cells, we performed anti-proliferation assay using MTT reagent to obtain IC50 of each compound. […] The synergistic effect was quantified by combination index (CI) analysis as stated above.

Test [10] deals with Melanocyte (Normal cells). Description: MTT cell viability assay, normal melanocytes. The class given is cell-based, human. The conditions noted are these: Homo sapiens, Melanocyte, 24 h. The procedure:
as §1, §3

Test [11] concerns RAW264.7 (normal macrophage). As to the kind of experiment: MTT cell viability assay, RAW264.7 macrophages. The class given is cell-based, mouse. The settings on record: Mus musculus, RAW264.7, 24 h. The method, then: as §1
(§4) Marcophages (2×10^5 cells/well in 96-well plate) were treated with compounds for 1 h, then incubated further for 24 h with or without the presence of […] LPS in the cultural medium. Nitrite levels in cell culture medium were determined by the Griess reaction method. In parallel to the Griess assays, macrophage cell viabilities were determined using the MTT based colorimetric assay.

Test [12] relates to LPS-induced nitric oxide (NO) production in RAW 264.7 cells. As to the kind of experiment: Nitric oxide production in LPS-stimulated macrophages (Griess). The format is cell-based, mouse. The conditions noted are these: Mus musculus; LPS-stimulated RAW264.7, nitrite 24 h after LPS. The procedure: as §4
LPS from the outer membrane of Gram-negative bacteria can induce mRNA or protein levels of inducible nitric oxide synthase (iNOS), which catalyzes oxidative deamination of L-arginine to produce nitric oxide (NO). Once NO is predominantly produced, it interacts with superoxide anion and generates highly reactive oxidants resulting in cellular inflammation, DNA, protein and tissue damages, carcinogenesis, and antiapoptosis. We used in vitro LPS stimulated inflammation in RAW264.7 cell system to evaluate the effect of DET and its derivatives DETDs on NO production by determination of nitrite level (equivalent to NO level) in culture medium 24 h after LPS treatment.

Where two headings read alike, the source gives them in different places.

Turning to `C=C1C(=O)OC2CC3=C[C@@H](C/C(C)=C/C(OC(=O)C=C(C)CCC=C(C)C)[C@H]12)OC3=O` (stereo partly shown) [DETD-14], the IC50 in [1] was above 7.5 µM; in test [2], above 7.5 µM; in test [3], above 7.5 µM; in test [4], above 7.5 µM; in [5] (24 h) it was above 10 µM; in [6], above 10 µM. Moreover, the IC50 is above 10 µM in test [7]; above 10 µM in test [8]; above 10 µM in test [9] (24 h, MTT); above 10 µM in test [10]; above 10 µM in test [11]; 2.2 µM in [12].

Regarding `C=C1C(=O)OC2CC3=C[C@@H](C/C(C)=C/C(OC(=O)C(CC)CC)[C@H]12)OC3=O` (stereo partly shown) [DETD-16], the IC50 in test [1] was 2.1 µM; in [2], 7 µM; in test [3] it was 3.9 µM; in test [4] it was above 7.5 µM; in test [5] (24 h) it was above 10 µM; in test [6] it was above 10 µM. Besides, the IC50 in test [7] is above 10 µM; in test [8], above 10 µM; in [9] (24 h, MTT) it was above 10 µM; in test [10], above 10 µM; in test [11] it was above 10 µM; in test [12], 3.2 µM.

For the compound `C=C1C(=O)OC2CC3=C[C@@H](C/C(C)=C/C(OC(C)=O)[C@H]12)OC3=O` (stereo partly shown) [DETD-17], the IC50 in [1] is 3.5 µM; in [2], above 7.5 µM; in test [3], 6.7 µM; in test [4], above 7.5 µM; in [5] it was above 10 µM; in test [6], above 10 µM. Besides, the IC50 in [7] was above 10 µM; in [8] it was above 10 µM; in test [9], above 10 µM; in test [10] it was above 10 µM; in [11], above 10 µM; in test [12], 2 µM.

For `C=C1C(=O)OC2CC3=C[C@@H](C/C(C)=C/C(OC(=O)CC(C)CC)[C@H]12)OC3=O` (stereo partly shown) [DETD-18], the IC50 in test [1] was 3.3 µM; in test [2], 5.5 µM; in [3], 2.6 µM; in [4], above 7.5 µM; in test [5] (24 h), 8.4 µM; in [6] it was above 10 µM. The IC50 in [7] is above 10 µM; in test [8], above 10 µM; in test [9] (24 h, MTT), above 10 µM; in [10], above 10 µM; in test [11], above 10 µM; in test [12] it was 3.4 µM.

With `C=C(CC)C(=O)OC1/C=C(\C)C[C@@H]2C=C(CC3OC(=O)C(=C)[C@@H]13)C(=O)O2` (stereo partly shown) [DETD-19], the IC50 in test [1] was 1.7 µM; in [2], 4.6 µM; in test [3] it was 3.5 µM; in test [4], above 7.5 µM; in test [5] (24 h), 7.8 µM; in test [6] it was above 10 µM. Besides, the IC50 in test [7] was above 10 µM; in test [8], above 10 µM; in test [9] (24 h, MTT) it was above 10 µM; in test [10], above 10 µM; in [11] it was above 10 µM; in [12], 3.8 µM.

`C=C1C(=O)OC2CC3=C[C@@H](C/C(C)=C/C(OC(=O)C(C)CCC)[C@H]12)OC3=O` (stereo partly shown) [DETD-20]: the IC50 is 2.2 µM in test [1]; 5.8 µM in test [2]; 3.5 µM in test [3]; above 7.5 µM in test [4]; 9 µM in [5] (24 h); above 10 µM in test [6]. For the same compound, the IC50 in test [7] is above 10 µM; in test [8], above 10 µM; in test [9] (24 h, MTT) it was above 10 µM; in test [10], above 10 µM; in test [11], above 10 µM; in test [12] it was 4.2 µM.

For `C=C1C(=O)OC2CC3=C[C@@H](C/C(C)=C/C(OC(=O)C(CC)CCCC)[C@H]12)OC3=O` (stereo partly shown) [DETD-21], the IC50 in [1] was 4 µM; in test [2] it was above 7.5 µM; in test [3], 4.5 µM; in test [4], above 7.5 µM; in [5] (24 h), above 10 µM; in test [6], above 10 µM. The IC50 in test [7] was above 10 µM; in test [8] it was above 10 µM; in [9] (24 h, MTT), above 10 µM; in [10], above 10 µM; in test [11], above 10 µM; in test [12], 4.7 µM.

Consider `C=C1C(=O)OC2CC3=C[C@@H](C/C(C)=C/C(OC(=O)C(C)CCCC)[C@H]12)OC3=O` (stereo partly shown) [DETD-22], for which the IC50 is 1.8 µM in [1]; 4.3 µM in test [2]; 2.5 µM in test [3]; 4.7 µM in test [4]; 6.8 µM in [5] (24 h); above 10 µM in test [6]. Also, the IC50 was above 10 µM in test [7]; above 10 µM in test [8]; above 10 µM in test [9] (24 h, MTT); above 10 µM in [10]; above 10 µM in [11]; 3.5 µM in test [12].

Consider `C=C1C(=O)OC2CC3=C[C@@H](C/C(C)=C/C(OC(=O)CC(O)(C(C)C)C(C)C)[C@H]12)OC3=O` (stereo partly shown) [DETD-23], for which the IC50 is 2.4 µM in test [1]; 5.9 µM in [2]; 2.5 µM in [3]; above 7.5 µM in [4]; 8.6 µM in test [5]; above 10 µM in test [6]. The IC50 in test [7] was above 10 µM; in [8] it was above 10 µM; in [9] it was above 10 µM; in [10], above 10 µM; in [11], above 10 µM; in test [12] it was 3.8 µM.

With `C=C1C(=O)OC2CC3=C[C@@H](C/C(C)=C/C(OC(=O)/C=C/C)[C@H]12)OC3=O` (stereo partly shown) [DETD-24], the IC50 in test [1] was 2.3 µM; in test [2] it was above 7.5 µM; in test [3], 3.9 µM; in [4], above 7.5 µM; in [5] (24 h), above 10 µM; in test [6] it was above 10 µM. Also, the IC50 in test [7] was above 10 µM; in [8] it was above 10 µM; in [9] (24 h, MTT) it was above 10 µM; in test [10], above 10 µM; in test [11] it was above 10 µM; in [12], 4.4 µM.

On to `C=C1C(=O)OC2CC3=C[C@@H](C/C(C)=C/C(OC(=O)/C=C/CC)[C@H]12)OC3=O` (stereo partly shown) [DETD-25], for which the IC50 in [1] is 4 µM; in [2] it was above 7.5 µM; in test [3], 5.8 µM; in [4] it was above 7.5 µM; in [5] (24 h), above 10 µM; in test [6] it was above 10 µM. Besides, the IC50 in test [7] is above 10 µM; in [8] it was above 10 µM; in [9] (24 h, MTT), above 10 µM; in test [10], above 10 µM; in [11], above 10 µM; in [12] it was 4.9 µM.

Turning to `C=C1C(=O)OC2CC3=C[C@@H](C/C(C)=C/C(OC(=O)/C=C/c4ccc(OC)cc4)[C@H]12)OC3=O` (stereo partly shown) [DETD-26], the IC50 is 1.5 µM in [1]; 4.1 µM in [2]; 3.7 µM in test [3]; 4.7 µM in test [4]; 5 µM in [5] (24 h); above 10 µM in test [6]. For the same compound, the IC50 in test [7] was above 10 µM; in [8], above 10 µM; in test [9] (24 h, MTT), above 10 µM; in [10], above 10 µM; in [11], above 10 µM; in [12] it was 1.7 µM. Further, the “IC50 on cell viability, M10 (normal)” value in [4] is given as “some toxicity”.
